Legend:
[1] = rat, in vivo
Protocol: All compounds are powders.
IV solution was prepared by dissolving semaglutide in water containing disodium phosphate (0.014% w/v), propylene glycol (0.144% w/v), and phenol (0.056% w/v). The solution was diluted by 3 to reach semaglutide concentration of 0.046mg/mL and filtrated by a sterile 0.22 μm syringe filter.
Pharmacokinetic study protocol: Male Wistar rats (275–300 g, Harlan, Israel) were kept under a 12 h light/dark cycle, with free access to food and water. Animals were anesthetized, and an indwelling cannula was placed into the right jugular vein for systemic blood sampling. The cannula was tunneled beneath the skin and exteriorized at the dorsal part of the neck. The animals were transferred to individual cages to recover overnight (12–18 h). Throughout the experiments, free access to food was available 4 h post-oral administration.
Oral SNAC or salt formulations were dispersed in distilled water and then administrated by oral gavage (~1.2 mL for a rat to get semaglutide dose of 12 mg/kg). Blood samples (0.36 mL) were obtained by intravenous cannula, placed into the jugular vein. In the case of oral administration, samples were taken at 5 min pre-dose intervals and at different time points post-dose, according to the pharmacokinetic profile (no more than 10% of rat blood volume was drawn). To prevent dehydration, physiological solutions were administered, following each blood sampling. Plasma was separated by centrifugation (4000 rpm, 7 min, 4 °C) and stored at −20 °C until use.
Plasma samples were analyzed by a developed LC-MS method for semaglutide.
Absolute bioavailability values and other pharmacokinetic observations were assessed by comparison to intravenous bolus of semaglutide.
Semaglutide in plasma was performed in an Eppendorf® tube by mixing 150 μL of the plasma sample with 150 μL acetonitrile (ACN) and 15 μL of 5% formic acid (FA) and vortexed for 5 min. The tube was centrifuged at 15 °C, 6000 rpm for 6 min. Then, 160 μL of the supernatant was collected in a new tube. A second extraction was performed for the remaining precipitant by adding 60 μL of 5% FA, followed by mixing and centrifugation. Supernatant, 50 μL, was transferred into a tube. The solvent was evaporated to dryness, reconstituted with 50 μL 5% FA, and analyzed by an LC-MS system. Semaglutide standards were prepared by spiking semaglutide solutions in 5% FA into plasma to obtain final concentrations of 1–0.005 μg/mL. The same extraction procedure was performed on the standards as well.
MS/MS analyses were determined on a Sciex (Framingham, MA, USA) QTRAP® 6500^+ mass spectrometer). The chromatography analysis was performed using reverse-phase conditions using a Shimadzu (Kyoto, Japan) UHPLC System, consisting of a Shimadzu CBM-20A communication bus module, Nexera X2 LC-30AD pump, including a Shimadzu DGU-20A5R degasser, a Shimadzu SIL-30AC autosampler, and a Shimadzu CTO-20AC column oven. Liquid chromatography separation was obtained using 10 μL injections of samples onto an XBridge Peptide BEH C18 column (3.5 µm 300Å, 50 × 2.1 mm) from Waters Corp. (Milford, MA, USA), protected by a SecurityGuard™ (Phenomenex, Torrance, CA, USA) cartridge (C18, 2 × 2.1 mm). The column was maintained at 40 °C during the entire analysis. Gradient elution mobile phases consisted of 0.1% formic acid in water (Phase A) and 0.1% formic acid in methanol (Phase B). A flow rate of 0.2 mL/min was applied with a linear gradient from 60% to 80% B over 3.5 min and then held at 80% B for additional 4.5 min. The column was then equilibrated for 6 min at starting conditions prior to the injection of the next sample. The gradient elution program (0.2 mL/min) is described in Table 1.

[2] = dogs, semaglutide formulated with SNAC tablet; cited from earlier work
From the text: The professional literature has contained studies concerning the mechanism of SNAC to enhance permeability. […] SNAC increases lipophilicity of the formulation and causes a local increase in pH via a buffering action.

[3] = clinical study, cited from earlier work
From the text: Preclinical studies reached similar conclusions, although with slightly different values. It is important to remember that the study model, as well as the specific drug being investigated, plays a role in the results, as the drug’s properties and size also affect its absorption. Semaglutide, being ...

SNAC–phosphatidylcholine [PC]
AUC0−8 ([1]; po, 12 mg/kg): 5083 ± 1478 ng·h/mL
AUC0−∞ ([1]; po, 12 mg/kg): 7729 ± 2928 ng·h/mL
Cmax ([1]; po, 12 mg/kg): 945 ± 295 ng/mL
fold increase in AUC0−8 over the original SNAC formulation ([1]; po, 12 mg/kg): ~ 3 fold
fold increase in AUC0−∞ over the original SNAC formulation ([1]; po, 12 mg/kg): ~ 4 fold
fold increase in F% over the original SNAC formulation ([1]; po, 12 mg/kg): ~ 4 fold

CC[C@H](C)[C@H](NC(=O)[C@H](Cc1ccccc1)NC(=O)[C@H](CCC(=O)O)NC(=O)[C@H](CCCCNC(=O)COCCOCCNC(=O)COCCOCCNC(=O)CC[C@H](NC(=O)CCCCCCCCCCCCCCCCC(=O)O)C(=O)O)NC(=O)[C@H](C)NC(=O)[C@H](C)NC(=O)[C@H](CCC(N)=O)NC(=O)CNC(=O)[C@H](CCC(=O)O)NC(=O)[C@H](CC(C)C)NC(=O)[C@H](Cc1ccc(O)cc1)NC(=O)[C@H](CO)NC(=O)[C@H](CO)NC(=O)[C@@H](NC(=O)[C@H](CC(=O)O)NC(=O)[C@H](CO)NC(=O)[C@@H](NC(=O)[C@H](Cc1ccccc1)NC(=O)[C@@H](NC(=O)CNC(=O)[C@H](CCC(=O)O)NC(=O)C(C)(C)NC(=O)[C@@H](N)Cc1cnc[nH]1)[C@@H](C)O)[C@@H](C)O)C(C)C)C(=O)N[C@@H](C)C(=O)N[C@@H](Cc1c[nH]c2ccccc12)C(=O)N[C@@H](CC(C)C)C(=O)N[C@H](C(=O)N[C@@H](CCCNC(=N)N)C(=O)NCC(=O)N[C@@H](CCCNC(=N)N)C(=O)NCC(=O)O)C(C)C [semaglutide, Semaglutide]
semaglutide concentration underneath the tablet compared to 6 cm at a further distance [2]: 10 fold
semaglutide absorption after oral administration not including SNACs [1]: negligible semaglutide absorption

vitamin B12
absolute absorption, formulation with SNAC ([3]; oral vitamin B12 affected by SNAC): 5%
absolute absorption, commercial product ([3]; oral vitamin B12 commercial product): 2%

Source: PMC11356839, “The Synthesis of SNAC Phenolate Salts and the Effect on Oral Bioavailability of Semaglutide” (Molecules, 2024)
